The supplement of paper PMC13380429
± gives the standard deviation of the averaged measurements.

What was measured:
Conditions in all cases: 72 h
HepG2 [1] = assay: relative viability EC50 (midpoint between 100% and the lowest measured viability); higher = less toxic
U2OS [2] = assay: as above
Vero E6 [3] = assay: as above
Calu-3 [4] = assay: as above
Caco-2 [5] = assay: as above
HepG2 [6] = assay: drug sensitivity score (DSS) for viability; higher = more toxic; extreme values may be limits of the assay
U2OS [7] = assay: as above
Vero E6 [8] = assay: as above
Calu-3 [9] = assay: as above
Caco-2 [10] = assay: as above
HepG2 [11] = assay: cell viability relative to DMSO; higher = less toxic
U2OS [12] = assay: as above
Vero E6 [13] = assay: as above
Calu-3 [14] = assay: as above
Caco-2 [15] = assay: as above

SMILES | relative viability EC50 (HepG2 [1]) | relative viability EC50 (U2OS [2]) | relative viability EC50 (Vero E6 [3]) | relative viability EC50 (Calu-3 [4]) | relative viability EC50 (Caco-2 [5]) | drug sensitivity score (HepG2 [6]) | drug sensitivity score (U2OS [7]) | drug sensitivity score (Vero E6 [8]) | drug sensitivity score (Calu-3 [9]) | drug sensitivity score (Caco-2 [10]) | cell viability (HepG2 [11]; 1 nM) | cell viability (HepG2 [11]; 10 nM) | cell viability (HepG2 [11]; 100 nM) | cell viability (HepG2 [11]; 1000 nM) | cell viability (HepG2 [11]; 10000 nM) | cell viability (U2OS [12]; 1 nM) | cell viability (U2OS [12]; 10 nM) | cell viability (U2OS [12]; 100 nM) | cell viability (U2OS [12]; 1000 nM) | cell viability (U2OS [12]; 10000 nM) | cell viability (Vero E6 [13]; 1 nM) | cell viability (Vero E6 [13]; 10 nM) | cell viability (Vero E6 [13]; 100 nM) | cell viability (Vero E6 [13]; 1000 nM) | cell viability (Vero E6 [13]; 10000 nM) | cell viability (Calu-3 [14]; 1 nM) | cell viability (Calu-3 [14]; 10 nM) | cell viability (Calu-3 [14]; 100 nM) | cell viability (Calu-3 [14]; 1000 nM) | cell viability (Calu-3 [14]; 10000 nM) | cell viability (Caco-2 [15]; 1 nM) | cell viability (Caco-2 [15]; 10 nM) | cell viability (Caco-2 [15]; 100 nM) | cell viability (Caco-2 [15]; 1000 nM) | cell viability (Caco-2 [15]; 10000 nM)
CCOC(=O)C1=C(C)NC(C)=C(C(=O)OC)[C@@H]1c1cccc([N+](=O)[O-])c1 (racemic) [nitrendipine] | > 10 µM | > 10 µM | > 10 µM | > 10 µM | > 10 µM | 0 | 0 | 0 | 0 | 0 | 108% | 102% | 89% | 104% | 92.7% | 98.5% | 96.9% | 98.7% | 95.4% | 95.6% | 102% | 106% | 98.5% | 105% | 103% | 89.5% | 92.3% | 105% | 86.5% | 87.1% | 81.3% | 92.4% | 96.2% | 90.2% | 82.9%
CCS(=O)(=O)CCn1c([N+](=O)[O-])cnc1C [tinidazole] | > 10 µM | > 10 µM | > 10 µM | > 10 µM | > 10 µM | 0 | 0 | 0 | 0 | 0 | 94.1% | 109% | 85.5% | 118% | 86.8% | 96.3% | 94.8% | 97.1% | 92% | 98.3% | 100% | 102% | 91.7% | 97.6% | 106% | 95.2% | 96.6% | 98.4% | 98.2% | 99.9% | 104% | 77.8% | 99% | 108% | 93.1%
CC1C(=O)OC2C(O)C34C5CC(C(C)(C)C)C36C(OC(=O)C6O)OC4(C(=O)O5)C12O (centres undefined) [ginkgolide-B] | > 10 µM | > 10 µM | > 10 µM | > 10 µM | > 10 µM | 0 | 0 | 0 | 0 | 0 | 110% | 98.4% | 99% | 97.3% | 97.5% | 106% | 102% | 106% | 96.2% | 104% | 100% | 101% | 97.1% | 98.9% | 100% | 106% | 90.8% | 103% | 98.6% | 106% | 98% | 93.4% | 102% | 93.8% | 92.8%
O=C1NCN(c2ccccc2)C12CCN(CCCC(c1ccc(F)cc1)c1ccc(F)cc1)CC2 [fluspirilene] | > 10 µM | > 10 µM | > 10 µM | > 10 µM | > 10 µM | 1.1 | 0 | 0 | 0 | 0 | 112% | 100% | 101% | 88.5% | 84.8% | 98.4% | 103% | 98.1% | 105% | 90.5% | 115% | 98.1% | 103% | 103% | 93.7% | 101% | 104% | 99.4% | 105% | 105% | 88.3% | 106% | 80.5% | 116% | 99%
COC(=O)C1=C(C)NC(C)=C([N+](=O)[O-])[C@@H]1c1ccccc1C(F)(F)F (racemic) [BAY-K-8644-(+/-)] | > 10 µM | > 10 µM | > 10 µM | > 10 µM | > 10 µM | 0 | 0 | 0 | 0 | 0 | 99.8 ± 1.3% | 93.6 ± 3.2% | 95.2 ± 1.8% | 104 ± 10% | 94.25 ± 0.21% | 95.9 ± 0.28% | 95.9 ± 4.4% | 98.8 ± 4.9% | 97.9 ± 4.7% | 96.2 ± 0.85% | 95 ± 1.1% | 97.9 ± 1.4% | 99.4 ± 4.5% | 100 ± 2% | 101 ± 5.7% | 101 ± 8.4% | 99.4 ± 2.1% | 99.9 ± 7.6% | 100 ± 6.7% | 98.5 ± 3.2% | 89.8 ± 1.6% | 94.5 ± 2.3% | 94.3 ± 1.8% | 106 ± 4.2% | 93.4 ± 3.4%
O=c1c(O)c(-c2ccc(O)c(O)c2)oc2cc(O)ccc12 [fisetin] | > 10 µM | > 10 µM | > 10 µM | > 10 µM | > 10 µM | 0 | 0 | 0 | 0.3 | 0 | 95% | 111% | 104% | 107% | 105% | 97.5% | 97.6% | 102% | 94.8% | 98% | 93.3% | 97.9% | 91.3% | 97.1% | 103% | 93.2% | 90.1% | 95.3% | 101% | 83.2% | 96.8% | 104% | 95.3% | 96.8% | 92.8%
COc1ccc(-c2cc(=O)c3c(OC)c(OC)c(OC)c(OC)c3o2)cc1 [tangeritin] | > 10 µM | > 10 µM | > 10 µM | > 10 µM | > 10 µM | 0 | 0 | 0 | 0 | 0 | 94.2% | 101% | 95.2% | 107% | 105% | 98.5% | 94.3% | 98.9% | 97.4% | 89.8% | 91.8% | 98.7% | 92.4% | 98% | 97% | 106% | 99.6% | 103% | 100% | 92.3% | 95.1% | 89.6% | 99% | 103% | 91.7%
Nc1nc(N)nc(NC2CC2)n1 [cyromazine] | > 10 µM | > 10 µM | > 10 µM | > 10 µM | > 10 µM | 0 | 0 | 0 | 0 | 0 | 96.3% | 105% | 99.8% | 95% | 104% | 94.9% | 93.4% | 97.8% | 96.7% | 103% | 92.8% | 98.2% | 93% | 99.1% | 109% | 105% | 92.6% | 95.7% | 84.6% | 103% | 99.6% | 99.8% | 108% | 95.3% | 96.1%
COc1ccc2c(OCc3nnc4ccc(-c5ccccc5)nn34)ccnc2c1 [AMG-208] | > 10 µM | > 10 µM | > 10 µM | > 10 µM | > 10 µM | 0 | 0 | 0 | 0 | 0 | 99.4% | 99.9% | 101% | 97% | 104% | 104% | 95.5% | 102% | 103% | 99% | 95.6% | 92.1% | 93.9% | 104% | 91.2% | 108% | 99.8% | 97.3% | 92.2% | 97% | 99.8% | 95.9% | 104% | 100% | 91%
Cc1ccccc1NC(=N)Nc1ccccc1C [ditolylguanidine] | > 10 µM | > 10 µM | > 10 µM | > 10 µM | > 10 µM | 0 | 0 | 0 | 0 | 0.2 | 100% | 96.1% | 97.7% | 94.3% | 97.9% | 98.8% | 104% | 94.6% | 102% | 94.7% | 96.4% | 104% | 95.6% | 100% | 95.6% | 103% | 104% | 95.8% | 103% | 90.4% | 96.5% | 100% | 103% | 95.6% | 88.3%
COC(=O)CC[C@@H]1N=C(c2ccccn2)c2cc(Br)ccc2-n2c(C)cnc21 [remimazolam] | > 10 µM | > 10 µM | > 10 µM | > 10 µM | > 10 µM | 0 | 0 | 0 | 0 | 0 | 97.1% | 83.5% | 103% | 100% | 108% | 96.4% | 105% | 97.7% | 98% | 97.8% | 103% | 96.5% | 99.3% | 96% | 99.8% | 104% | 94.1% | 111% | 90% | 95.2% | 95.2% | 101% | 95.3% | 99.2% | 91.7%
OCCn1cc(-c2cnc3nnn(Cc4ccc5ncccc5c4)c3n2)cn1 | – | > 10 µM | > 10 µM | > 10 µM | > 10 µM | 1.3 | 0 | 0 | 0 | 1.8 | 102% | 93.6% | 88.8% | 97.7% | 74.9% | 105% | 101% | 99.3% | 95.3% | 97.1% | 99.7% | 105% | 97.7% | 97.7% | 96.4% | 99% | 92.2% | 93% | 93.9% | 103% | 93.7% | 100% | 97.1% | 86.2% | 79.2%
Cc1cncc(CN2CCC(=C3c4ccc(Cl)cc4CCc4cccnc43)CC2)c1 [rupatadine] | – | > 10 µM | > 10 µM | > 10 µM | > 10 µM | 1.9 | 0 | 0 | 0 | 0.7 | 112% | 100% | 99.2% | 95.5% | 71.9% | 101% | 91.9% | 99.5% | 95.6% | 90.3% | 99% | 102% | 96.8% | 100% | 102% | 105% | 97.1% | 99.9% | 109% | 113% | 98.3% | 102% | 93.8% | 90.2% | 88.3%
N[C@H]1CC[C@H](N[C@@H]2C[C@H]2c2ccccc2)CC1 [ORY-1001] | – | > 10 µM | > 10 µM | > 10 µM | > 10 µM | – | 0 | 0 | 0 | 0 | – | – | – | – | – | 96.3% | 98.7% | 97.4% | 101% | 98.4% | 97.7% | 103% | 99% | 96.3% | 103% | 93.2% | 105% | 94.1% | 99.3% | 95.3% | 93.7% | 99.5% | 93.2% | 100% | 100%
CCCCOC(=O)c1ccccc1Nc1cccc(C(F)(F)F)c1 [ufenamate] | – | > 10 µM | > 10 µM | > 10 µM | > 10 µM | – | 0 | 0 | 0 | 0 | – | – | – | – | – | 91.7% | 98.7% | 92.4% | 100% | 108% | 110% | 104% | 106% | 106% | 98.5% | 105% | 87.3% | 91.8% | 93.7% | 94.7% | 96.2% | 102% | 94.4% | 93.7% | 98.1%
